From the OligoGym collection
HELM strings list units from the 5' end as sugar, base in round brackets, then linkage (d deoxyribose, r ribose, m 2'-O-methyl, p phosphodiester). Strings are as the collection lists them, not checked against the first reports. ss, as = sense and antisense strand; [fl2r] = 2'-fluoro

Settings: siRNA
Further: test system not given here.

Substance	target mRNA knockdown
RNA1{r(A)p.r(G)p.r(A)p.r(A)p.r(A)p.r(A)p.r(G)p.m(C)p.r(A)p.r(G)p.r(C)p.r(G)p.r(A)p.m(U)p.r(A)p.r(C)p.r(G)p.r(C)p.r(U)p.r(T)p.r(T)}|RNA2{r(A)p.r(G)p.r(C)p.r(G)p.r(U)p.r(A)p.r(U)p.r(C)p.r(G)p.r(C)p.m(U)p.r(G)p.r(C)p.r(U)p.r(U)p.r(U)p.r(U)p.r(C)p.r(U)p.r(T)p.r(T)}$$$RNA1{StrandType:ss}|RNA2{StrandType:as}$	68%
RNA1{r(A)p.r(G)p.r(A)p.r(A)p.r(A)p.r(A)p.r(G)p.r(C)p.r(A)p.r(G)p.r(C)p.r(G)p.r(A)p.m(U)p.r(A)p.r(C)p.r(G)p.r(C)p.r(U)p.r(T)p.r(T)}|RNA2{r(A)p.r(G)p.r(C)p.r(G)p.r(U)p.r(A)p.r(U)p.r(C)p.r(G)p.r(C)p.r(U)p.r(G)p.r(C)p.r(U)p.r(U)p.r(U)p.r(U)p.r(C)p.r(U)p.r(T)p.r(T)}$$$RNA1{StrandType:ss}|RNA2{StrandType:as}$	69%
RNA1{r(A)p.r(G)p.r(A)p.r(A)p.r(A)p.r(C)p.r(G)p.m(C)p.r(A)p.r(G)p.m(U)p.m(A)p.r(A)p.r(U)p.r(C)p.r(C)p.r(G)p.r(G)p.r(A)p.r(T)p.r(T)}|RNA2{r(U)p.r(C)p.r(C)p.r(G)p.r(G)p.r(A)p.r(U)p.m(U)p.r(A)p.r(C)p.m(U)p.r(G)p.r(C)p.r(G)p.r(U)p.r(U)p.r(U)p.r(C)p.r(U)p.r(T)p.r(T)}$$$RNA1{StrandType:ss}|RNA2{StrandType:as}$	78%
RNA1{r(A)p.r(G)p.r(A)p.r(A)p.r(A)p.r(C)p.r(G)p.m(C)p.r(A)p.r(G)p.m(U)p.r(A)p.r(A)p.r(U)p.r(C)p.r(C)p.r(G)p.r(G)p.r(A)p.r(T)p.r(T)}|RNA2{r(U)p.r(C)p.r(C)p.r(G)p.r(G)p.r(A)p.r(U)p.m(U)p.r(A)p.r(C)p.m(U)p.r(G)p.r(C)p.r(G)p.r(U)p.r(U)p.r(U)p.r(C)p.r(U)p.r(T)p.r(T)}$$$RNA1{StrandType:ss}|RNA2{StrandType:as}$	81%
RNA1{r(A)p.r(G)p.r(A)p.r(A)p.r(A)p.r(C)p.r(G)p.r(C)p.r(A)p.r(G)p.m(U)p.m(A)p.r(A)p.r(U)p.r(C)p.r(C)p.r(G)p.r(G)p.r(A)p.r(T)p.r(T)}|RNA2{r(U)p.r(C)p.r(C)p.r(G)p.r(G)p.r(A)p.r(U)p.m(U)p.r(A)p.r(C)p.r(U)p.r(G)p.r(C)p.r(G)p.r(U)p.r(U)p.r(U)p.r(C)p.r(U)p.r(T)p.r(T)}$$$RNA1{StrandType:ss}|RNA2{StrandType:as}$	85%
RNA1{r(A)p.r(G)p.r(A)p.r(A)p.r(A)p.r(C)p.r(G)p.r(C)p.r(A)p.r(G)p.m(U)p.r(A)p.r(A)p.r(U)p.r(C)p.r(C)p.r(G)p.r(G)p.r(A)p.r(T)p.r(T)}|RNA2{r(U)p.r(C)p.r(C)p.r(G)p.r(G)p.r(A)p.r(U)p.r(U)p.r(A)p.r(C)p.m(U)p.r(G)p.r(C)p.r(G)p.r(U)p.r(U)p.r(U)p.r(C)p.r(U)p.r(T)p.r(T)}$$$RNA1{StrandType:ss}|RNA2{StrandType:as}$	82%
RNA1{r(A)p.r(G)p.r(A)p.r(A)p.r(G)p.[fl2r](U)p.r(A)p.r(C)p.[fl2r](C)p.r(A)p.r(G)p.r(G)p.r(A)p.r(G)p.r(G)p.r(C)p.r(G)p.r(U)p.r(U)p.r(T)p.r(T)}|RNA2{r(A)p.r(A)p.r(C)p.r(G)p.r(C)p.r(C)p.r(U)p.r(C)p.r(C)p.[fl2r](U)p.r(G)p.r(G)p.[fl2r](U)p.r(A)p.r(C)p.r(U)p.r(U)p.r(C)p.r(U)p.r(T)p.r(T)}$$$RNA1{StrandType:ss}|RNA2{StrandType:as}$	57%
RNA1{r(A)p.r(G)p.r(A)p.r(A)p.r(G)p.[fl2r](U)p.r(A)p.r(C)p.r(C)p.r(A)p.r(G)p.r(G)p.r(A)p.r(G)p.r(G)p.r(C)p.r(G)p.r(U)p.r(U)p.r(T)p.r(T)}|RNA2{r(A)p.r(A)p.r(C)p.r(G)p.r(C)p.r(C)p.r(U)p.r(C)p.r(C)p.[fl2r](U)p.r(G)p.r(G)p.r(U)p.r(A)p.r(C)p.r(U)p.r(U)p.r(C)p.r(U)p.r(T)p.r(T)}$$$RNA1{StrandType:ss}|RNA2{StrandType:as}$	60%
RNA1{r(A)p.r(G)p.r(A)p.r(A)p.r(G)p.m(U)p.r(A)p.r(C)p.m(C)p.r(A)p.r(G)p.r(G)p.r(A)p.r(G)p.m(G)p.r(C)p.r(G)p.r(U)p.r(U)p.r(T)p.r(T)}|RNA2{r(A)p.r(A)p.r(C)p.r(G)p.r(C)p.r(C)p.r(U)p.r(C)p.r(C)p.m(U)p.r(G)p.r(G)p.m(U)p.r(A)p.r(C)p.r(U)p.r(U)p.r(C)p.r(U)p.r(T)p.r(T)}$$$RNA1{StrandType:ss}|RNA2{StrandType:as}$	68%
RNA1{r(A)p.r(G)p.r(A)p.r(A)p.r(G)p.m(U)p.r(A)p.r(C)p.r(C)p.r(A)p.r(G)p.r(G)p.r(A)p.r(G)p.r(G)p.r(C)p.r(G)p.r(U)p.r(U)p.r(T)p.r(T)}|RNA2{r(A)p.r(A)p.r(C)p.r(G)p.r(C)p.r(C)p.r(U)p.r(C)p.r(C)p.r(U)p.r(G)p.r(G)p.m(U)p.r(A)p.r(C)p.r(U)p.r(U)p.r(C)p.r(U)p.r(T)p.r(T)}$$$RNA1{StrandType:ss}|RNA2{StrandType:as}$	69%
RNA1{r(A)p.r(G)p.r(A)p.r(A)p.r(G)p.r(G)p.r(A)p.m(C)p.m(U)p.r(A)p.m(C)p.m(U)p.r(A)p.r(A)p.m(C)p.m(C)p.m(U)p.m(C)p.m(C)p.r(T)p.r(T)}|RNA2{r(G)p.r(G)p.r(A)p.r(G)p.r(G)p.r(U)p.r(U)p.r(A)p.r(G)p.r(U)p.r(A)p.r(G)p.r(U)p.r(C)p.r(C)p.r(U)p.r(U)p.r(C)p.r(U)p.r(T)p.r(T)}$$$RNA1{StrandType:ss}|RNA2{StrandType:as}$	80%
RNA1{r(A)p.r(G)p.r(A)p.r(A)p.r(G)p.r(G)p.r(A)p.r(C)p.m(U)p.r(A)p.r(C)p.m(U)p.r(A)p.r(A)p.r(C)p.r(C)p.m(U)p.r(C)p.r(C)p.r(T)p.r(T)}|RNA2{r(G)p.r(G)p.r(A)p.r(G)p.r(G)p.m(U)p.m(U)p.r(A)p.r(G)p.m(U)p.r(A)p.r(G)p.m(U)p.r(C)p.r(C)p.m(U)p.m(U)p.r(C)p.m(U)p.r(T)p.r(T)}$$$RNA1{StrandType:ss}|RNA2{StrandType:as}$	49%
RNA1{r(A)p.r(G)p.r(A)p.r(A)p.r(G)p.r(G)p.r(A)p.r(C)p.m(U)p.r(A)p.r(C)p.m(U)p.r(A)p.r(A)p.r(C)p.r(C)p.r(U)p.r(C)p.r(C)p.r(T)p.r(T)}|RNA2{r(G)p.r(G)p.r(A)p.r(G)p.r(G)p.r(U)p.r(U)p.r(A)p.r(G)p.m(U)p.r(A)p.r(G)p.r(U)p.r(C)p.r(C)p.r(U)p.r(U)p.r(C)p.r(U)p.r(T)p.r(T)}$$$RNA1{StrandType:ss}|RNA2{StrandType:as}$	81%
RNA1{r(A)p.r(G)p.r(A)p.r(C)p.[fl2r](U)p.r(A)p.r(A)p.r(G)p.r(C)p.r(C)p.[fl2r](C)p.r(A)p.r(A)p.r(A)p.r(A)p.r(G)p.r(G)p.r(G)p.r(C)p.r(T)p.r(T)}|RNA2{r(G)p.r(C)p.r(C)p.r(C)p.r(U)p.r(U)p.r(U)p.[fl2r](U)p.r(G)p.r(G)p.r(G)p.r(C)p.r(U)p.[fl2r](U)p.r(A)p.r(G)p.r(U)p.r(C)p.r(U)p.r(T)p.r(T)}$$$RNA1{StrandType:ss}|RNA2{StrandType:as}$	45%
RNA1{r(A)p.r(G)p.r(A)p.r(C)p.[fl2r](U)p.r(A)p.r(A)p.r(G)p.r(C)p.r(C)p.r(C)p.r(A)p.r(A)p.r(A)p.r(A)p.r(G)p.r(G)p.r(G)p.r(C)p.r(T)p.r(T)}|RNA2{r(G)p.r(C)p.r(C)p.r(C)p.r(U)p.r(U)p.r(U)p.r(U)p.r(G)p.r(G)p.r(G)p.r(C)p.r(U)p.[fl2r](U)p.r(A)p.r(G)p.r(U)p.r(C)p.r(U)p.r(T)p.r(T)}$$$RNA1{StrandType:ss}|RNA2{StrandType:as}$	47%
RNA1{r(A)p.r(G)p.r(A)p.r(G)p.r(A)p.r(A)p.r(G)p.r(G)p.r(G)p.[fl2r](C)p.r(G)p.r(U)p.r(C)p.r(U)p.r(C)p.[fl2r](U)p.r(A)p.[fl2r](C)p.r(A)p.r(T)p.r(T)}|RNA2{[fl2r](U)p.r(G)p.[fl2r](U)p.r(A)p.r(G)p.r(A)p.r(G)p.r(A)p.r(C)p.r(G)p.r(C)p.r(C)p.r(C)p.r(U)p.r(U)p.r(C)p.r(U)p.r(C)p.r(U)p.r(T)p.r(T)}$$$RNA1{StrandType:ss}|RNA2{StrandType:as}$	71%
RNA1{r(A)p.r(G)p.r(A)p.r(G)p.r(A)p.r(A)p.r(G)p.r(G)p.r(G)p.r(C)p.r(G)p.r(U)p.r(C)p.r(U)p.r(C)p.r(U)p.[fl2r](A)p.r(C)p.r(A)p.r(T)p.r(T)}|RNA2{r(U)p.r(G)p.[fl2r](U)p.r(A)p.r(G)p.r(A)p.r(G)p.r(A)p.r(C)p.r(G)p.r(C)p.r(C)p.r(C)p.r(U)p.r(U)p.r(C)p.r(U)p.r(C)p.r(U)p.r(T)p.r(T)}$$$RNA1{StrandType:ss}|RNA2{StrandType:as}$	69%
RNA1{r(A)p.r(G)p.r(A)p.r(G)p.r(A)p.r(G)p.r(G)p.[fl2r](U)p.r(G)p.r(G)p.r(A)p.r(G)p.r(G)p.[fl2r](U)p.r(A)p.r(U)p.r(C)p.[fl2r](U)p.r(C)p.r(T)p.r(T)}|RNA2{r(G)p.r(A)p.r(G)p.r(A)p.[fl2r](U)p.r(A)p.r(C)p.r(C)p.r(U)p.r(C)p.[fl2r](C)p.[fl2r](A)p.r(C)p.r(C)p.r(U)p.r(C)p.r(U)p.r(C)p.r(U)p.r(T)p.r(T)}$$$RNA1{StrandType:ss}|RNA2{StrandType:as}$	85%
RNA1{r(A)p.r(G)p.r(A)p.r(G)p.r(A)p.r(G)p.r(G)p.[fl2r](U)p.r(G)p.r(G)p.r(A)p.r(G)p.r(G)p.r(U)p.r(A)p.r(U)p.r(C)p.r(U)p.r(C)p.r(T)p.r(T)}|RNA2{r(G)p.r(A)p.r(G)p.r(A)p.[fl2r](U)p.r(A)p.r(C)p.r(C)p.r(U)p.r(C)p.r(C)p.r(A)p.r(C)p.r(C)p.r(U)p.r(C)p.r(U)p.r(C)p.r(U)p.r(T)p.r(T)}$$$RNA1{StrandType:ss}|RNA2{StrandType:as}$	88%
RNA1{r(A)p.r(G)p.r(A)p.r(G)p.r(A)p.r(G)p.r(G)p.r(U)p.r(G)p.r(G)p.r(A)p.r(G)p.r(G)p.m(U)p.r(A)p.r(U)p.r(C)p.r(U)p.r(C)p.r(T)p.r(T)}|RNA2{r(G)p.r(A)p.r(G)p.r(A)p.m(U)p.r(A)p.r(C)p.r(C)p.r(U)p.r(C)p.r(C)p.r(A)p.r(C)p.r(C)p.r(U)p.r(C)p.r(U)p.r(C)p.r(U)p.r(T)p.r(T)}$$$RNA1{StrandType:ss}|RNA2{StrandType:as}$	90%
